Assay in all cases: Antifungal activity, MIC microdilution
What all share (format): cell-based

Experiment [1] relates to Candida albicans. The settings on record: RPMI 1640, 35° C., 24-48 hours. The method, then:
(§1) Briefly the following procedure was used to evaluate such activity. A 96 U-bottom microtiter plate was filled (50 μl/well) with RPMI 1640. The compounds to be evaluated were placed in appropriate wells, and serial diluted in successive wells to provide 11 dilutions. The concentrations ranged from 64 through 0.06 μg/ml. An adjusted inoculum of fungi (50 μl) was added to each well and the plates were incubated at 35° C. for 24-48 hours.

Experiment [2] concerns Candida lusitaniae. The settings on record: Clavispora lusitaniae; strain 94-3; RPMI 1640, 35° C., 24-48 hours; read-out: MIC. The method, then: as §1
In experiment [3] the test system is Candida pseudotropicalis. The settings on record: strain ATCC 28838, RPMI 1640, 35° C., 24-48 hours. The method, then: as §1
Experiment [4] concerns Saccharomyces cerevisiae. Here is the method: as §1
In experiment [5] the test system is Aspergillus flavus. The method, then:
as §1

In experiment [6] the test system is Candida rugosa. The settings on record: strain 94-10, RPMI 1640, 35° C., 24-48 hours. Here is the method:
as §1

Experiment [7] relates to Candida zeylanoided. The settings on record: strain 94-15, RPMI 1640, 35° C., 24-48 hours. Here is the method:
as §1

Experiment [8] deals with Aspergillus niger. The settings on record: strain S-430, RPMI 1640, 35° C., 24-48 hours. Here is the method: as §1
For experiment [9], the system named is Cryptococcus neoformans. The settings on record: strain ATCC 90112, RPMI 1640, 35° C., 24-48 hours. Here is the method: as §1, with “Antifungal activity for the compounds of this invention was established by evaluating a representative compound of this invention (Compound I) against several strains of fungi. Briefly” for “Briefly”
Experiment [10] relates to Candida krussii. The settings on record: strain 94-2, RPMI 1640, 35° C., 24-48 hours. The method, then:
as §1, with “Antifungal activity for the compounds of this invention was established by evaluating a representative compound of this invention (Compound I) against several strains of fungi. Briefly” for “Briefly”

Experiment [11] deals with Candida parapsilosis. The settings on record: RPMI 1640, 35° C., 24-48 hours. Here is the method:
as §1, with “Antifungal activity for the compounds of this invention was established by evaluating a representative compound of this invention (Compound I) against several strains of fungi. Briefly” for “Briefly”

For experiment [12], the system named is Candida glabrata. The settings on record: strain ATCC 90030, RPMI 1640, 35° C., 24-48 hours. Here is the method: as §1, with “Antifungal activity for the compounds of this invention was established by evaluating a representative compound of this invention (Compound I) against several strains of fungi. Briefly” for “Briefly”
Experiment [13] has as its system Candida tropicalis. The settings on record: RPMI 1640, 35° C., 24-48 hours. The method, then: as §1, with “Antifungal activity for the compounds of this invention was established by evaluating a representative compound of this invention (Compound I) against several strains of fungi. Briefly” for “Briefly”
The test system of experiment [14] is Aspergillus fumigatus. The conditions noted are these: strain ATCC 26933, RPMI 1640, 35° C., 24-48 hours. The method, then:
as §1, with “Antifungal activity for the compounds of this invention was established by evaluating a representative compound of this invention (Compound I) against several strains of fungi. Briefly” for “Briefly”

Experiment [15] relates to Filobasidiella neoformans. The settings on record: strain ATCC 7472, RPMI 1640, 35° C., 24-48 hours. The method, then:
as §1, with “Antifungal activity for the compounds of this invention was established by evaluating a representative compound of this invention (Compound I) against several strains of fungi. Briefly” for “Briefly”

Where [16] appears, read: Kluyveromyces marxianus, ATCC28838, read-out: MIC.
The mark [17] stands for this setting: Aspergillus flavus, ATCC12963, strain ATCC 12963, RPMI 1640, 35° C., 24-48 hours, read-out: MIC.
The mark [18] stands for this setting: Aspergillus niger, read-out: MIC.
The mark [19] stands for this setting: Cryptococcus neoformans, ATCC90112, read-out: MIC.
The mark [20] stands for this setting: Lodderomyces parapsilosis, ATCC90018, strain ATCC 90018, read-out: MIC.
[21] abbreviates: Lodderomyces parapsilosis, strain 94-8, read-out: MIC.
[22] abbreviates: Lodderomyces parapsilosis, strain 94-9, read-out: MIC.
Setting [23] is: Nakaseomyces glabratus, ATCC90030, read-out: MIC.
[24] abbreviates: Candida tropicalis, strain 94-14, read-out: MIC.
Setting [25] is: Aspergillus fumigatus, ATCC26933, read-out: MIC.
The mark [26] stands for this setting: Cryptococcus neoformans, ATCC7472, read-out: MIC.
Where [27] appears, read: Candida albicans, ATCC90028, strain ATCC 90028.
Where [28] appears, read: Saccharomyces cerevisiae, ATCC2601, strain ATCC 2601, RPMI 1640, 35° C., 24-48 hours, read-out: MIC.

The values that follow come from patent US6015809A (priority 1999, dated 2000).

≈ marks a conversion by molar mass, not a printed value. Read-outs that look alike come from different tables or passages of the source.

For `CC1C=CC=CC=CC=CC=CC=CC=CC(OC2OC(C)C(O)C(N)C2O)CC2OC(O)(CC(O)CC(O)C(O)CCC(O)CC(O)CC(=O)OC(C)C(C)C1O)CC(O)C2C(=O)O` (stereo not drawn) [Amphtericin B], the minimal inhibitory concentration (MIC) in [1] (Candida albicans, ATCC90028, strain ATCC 90028, read-out: MIC) was 0.25 µg/mL (≈ 0.271 µM); in experiment [1] (Candida albicans, strain 94-1, read-out: MIC), no more than 0.12 µg/mL; in experiment [1] (Candida albicans, strain 1063, read-out: MIC) it was 0.25 µg/mL (≈ 0.271 µM); in experiment [1] (Candida albicans, strain 1117, read-out: MIC), 0.25 µg/mL (≈ 0.271 µM); in [1] (Candida albicans, strain C-83, read-out: MIC), 0.25 µg/mL (≈ 0.271 µM); in [2], no more than 0.12 µg/mL. Moreover, the minimum inhibitory concentration (MIC) is 0.25 µg/mL (≈ 0.271 µM) in experiment [3] (setting [16]); no more than 0.12 µg/mL in experiment [4] (Saccharomyces cerevisiae, ATCC2601); 2 µg/mL (≈ 2.16 µM) in experiment [5] (setting [17]); 0.25 µg/mL (≈ 0.271 µM) in experiment [6] (Diutina rugosa, read-out: MIC); 0.25 µg/mL (≈ 0.271 µM) in experiment [7] (Candida, read-out: MIC); 0.25 µg/mL (≈ 0.271 µM) in [8] (setting [18]). Moreover, the MIC in experiment [9] (setting [19]) is no more than 0.12 µg/mL; in experiment [10] (Candida, read-out: MIC) it was 0.5 µg/mL (≈ 0.541 µM); in experiment [11] (setting [20]), no more than 0.12 µg/mL; in experiment [11] (setting [21]), 0.25 µg/mL (≈ 0.271 µM); in experiment [11] (setting [22]), 0.5 µg/mL (≈ 0.541 µM); in experiment [12] (setting [23]), 0.25 µg/mL (≈ 0.271 µM). In addition, the MIC is 0.25 µg/mL (≈ 0.271 µM) in experiment [13] (setting [24]), 0.25 µg/mL (≈ 0.271 µM) in experiment [13] (strain 94-13), 0.25 µg/mL (≈ 0.271 µM) in experiment [14] (setting [25]) and 0.12 µg/mL (≈ 0.13 µM) in experiment [15] (setting [26]).
Turning to `OC(Cn1cncn1)(Cn1cncn1)c1ccc(F)cc1F` [Fluconazole], the MIC in [1] (setting [27]) was no less than 16 µg/mL; in [1] (Candida albicans, strain 94-1) it was no less than 16 µg/mL; in [1] (Candida albicans, strain 1063), 4 µg/mL (≈ 13.1 µM); in experiment [1] (Candida albicans, strain 1117), 8 µg/mL (≈ 26.1 µM); in [1] (Candida albicans, strain C-83) it was no less than 16 µg/mL; in experiment [2] it was 1 µg/mL (≈ 3.27 µM). Further, the MIC is no more than 0.12 µg/mL in experiment [3] (setting [16]); 8 µg/mL (≈ 26.1 µM) in [4] (setting [28]); greater than 16 µg/mL in experiment [5] (setting [17]); 2 µg/mL (≈ 6.53 µM) in [6] (Diutina rugosa, read-out: MIC); no less than 16 µg/mL in [7] (Candida, read-out: MIC); greater than 16 µg/mL in experiment [8] (setting [18]). Also, the MIC in [9] (setting [19]) was 8 µg/mL (≈ 26.1 µM); in experiment [10] (Candida, read-out: MIC), no less than 16 µg/mL; in experiment [11] (setting [20]) it was 0.5 µg/mL (≈ 1.63 µM); in experiment [11] (setting [21]), 0.5 µg/mL (≈ 1.63 µM); in [11] (setting [22]) it was 0.5 µg/mL (≈ 1.63 µM); in [12] (setting [23]) it was 4 µg/mL (≈ 13.1 µM). In addition, the minimal inhibitory concentration (MIC) is no less than 16 µg/mL in experiment [13] (setting [24]), no less than 16 µg/mL in experiment [13] (strain 94-13), greater than 16 µg/mL in experiment [14] (setting [25]) and 16 µg/mL (≈ 52.2 µM) in [15] (setting [26]).
With `Clc1ccc(COC(Cn2ccnc2)c2ccc(Cl)cc2Cl)c(Cl)c1` (stereo not drawn) [Miconazole], the MIC in [1] (setting [27]) is 0.5 µg/mL (≈ 1.2 µM); in experiment [1] (Candida albicans, strain 94-1) it was 8 µg/mL (≈ 19.2 µM); in experiment [1] (Candida albicans, strain 1063), 1 µg/mL (≈ 2.4 µM); in experiment [1] (Candida albicans, strain 1117) it was 1 µg/mL (≈ 2.4 µM); in [1] (Candida albicans, strain C-83) it was 8 µg/mL (≈ 19.2 µM); in experiment [2], no more than 0.12 µg/mL. In addition, the MIC in experiment [3] (setting [16]) was no more than 0.12 µg/mL; in experiment [4] (setting [28]) it was no more than 0.12 µg/mL; in [5] (Aspergillus flavus, ATCC12963), 0.5 µg/mL (≈ 1.2 µM); in [6] (Diutina rugosa, read-out: MIC), no more than 0.12 µg/mL; in [7] (Candida, read-out: MIC), 0.25 µg/mL (≈ 0.601 µM); in [8] (setting [18]) it was 4 µg/mL (≈ 9.61 µM). Moreover, the MIC is no more than 0.12 µg/mL in experiment [9] (setting [19]); 2 µg/mL (≈ 4.81 µM) in experiment [10] (Candida, read-out: MIC); no more than 0.12 µg/mL in experiment [11] (setting [20]); 0.25 µg/mL (≈ 0.601 µM) in experiment [11] (setting [21]); 0.5 µg/mL (≈ 1.2 µM) in experiment [11] (setting [22]); no more than 0.12 µg/mL in experiment [12] (setting [23]). Further, the minimum inhibitory concentration (MIC) in [13] (setting [24]) is 4 µg/mL (≈ 9.61 µM); in [13] (strain 94-13), 4 µg/mL (≈ 9.61 µM); in experiment [14] (setting [25]) it was 1 µg/mL (≈ 2.4 µM); in [15] (setting [26]) it was 0.25 µg/mL (≈ 0.601 µM).
In the case of `C[C@@H]1[C@H](O)[C@@H](C)/C=C/C=C/CC/C=C/C=C/C=C/C=C/C(O[C@H]2O[C@H](C)[C@@H](O)[C@H](N)[C@@H]2O)CC2O[C@](O)(CC(O)C(O)CCC(O)CC(O)CC(O)CC(=O)O[C@H]1C)CC(O)C2C(=O)O` (stereo partly drawn) [Nystatin], the MIC turned out to be 2.0 µg/mL (≈ 2.16 µM) in experiment [1] (strain 94-1); 2 µg/mL (≈ 2.16 µM) in experiment [1] (strain 1063); 1 µg/mL (≈ 1.08 µM) in experiment [1] (strain 1117); 1 µg/mL (≈ 1.08 µM) in [1] (strain ATCC 90028); 2 µg/mL (≈ 2.16 µM) in [1] (strain C-83); 1 µg/mL (≈ 1.08 µM) in experiment [3]. Besides, the minimal inhibitory concentration (MIC) is 2 µg/mL (≈ 2.16 µM) in experiment [4] (strain ATCC 2601, RPMI 1640, 35° C., 24-48 hours); no less than 16 µg/mL in experiment [5] (strain ATCC 12963, RPMI 1640, 35° C., 24-48 hours); 2 µg/mL (≈ 2.16 µM) in experiment [6]; 1 µg/mL (≈ 1.08 µM) in [7]; 4 µg/mL (≈ 4.32 µM) in [8]; 0.5 µg/mL (≈ 0.54 µM) in experiment [9]. In addition, the MIC amounted to 2 µg/mL (≈ 2.16 µM) in experiment [10]; 1 µg/mL (≈ 1.08 µM) in [11] (strain 94-8); 1 µg/mL (≈ 1.08 µM) in [11] (strain 94-9); 1 µg/mL (≈ 1.08 µM) in experiment [11] (strain ATCC 90018); 1 µg/mL (≈ 1.08 µM) in [12]; 1 µg/mL (≈ 1.08 µM) in experiment [13] (strain 94-13). For the same compound, the minimal inhibitory concentration (MIC) in experiment [13] (strain 94-14) is 2 µg/mL (≈ 2.16 µM); in experiment [14], 1 µg/mL (≈ 1.08 µM); in experiment [15] it was 0.5 µg/mL (≈ 0.54 µM).
